Source: patent US20080058281A1, “Skin Lightening Compositions Comprising Vitamines and Flavonoids” (priority 2004, published 2008)

Tested on: Melanoderm (MatTek MEL-300-B) tissue, epidermal keratinocytes (NHEK) and melanocytes (NHM)
Assay: Melanoderm system: quantification of light (alkali-soluble) and dark (alkali-insoluble) melanin
Type: cell-based, human
Details: for Total Melanin: Melanoderm tissue, agents in medium at Table 1 concentrations (Pycnogenol 10 μg/ml, Vit C 30 μg/ml, Vit E 1 μM, Vit B12 1 ng/ml, Vit A 15 ng/ml, cysteine 10 μg/ml, niacinamide 10 μg/ml), control 6.93; for Ratio of light melanin (μg/g)/dark melanin (μg/g) / Dark Melanin / Light Melanin / Dark Melanin, change relative to control / Light Melanin, change relative to control: Table 1 concentrations; for Ratio of light melanin (μg/g)/dark melanin (μg/g): control 0.14; for Dark Melanin: alkali-insoluble melanin, control 6.08; for Dark Melanin / Light Melanin: OD 340 nm; for Light Melanin: alkali-soluble melanin, control 0.85; for Dark Melanin, change relative to control: value in brackets under Dark Melanin; for Light Melanin, change relative to control: value in brackets under Light Melanin
Procedure: In these examples, evaluation of the ability of various agents, individually and in combination, to influence levels of dark and light melanin was tested using the commercially available Melanoderm™ system.
The MelanoDerm™ MatTeks system consists of normal, human-derived epidermal keratinocytes (NHEK) and melanocytes (NHM) which have been cultured to form a multilayered, highly differentiated model of the human epidermis. The NHM within co-cultures undergo spontaneous melanogenesis leading to tissues of varying levels of pigmentation. The tissues are produced using serum free medium without artificial stimulators of melanogenesis such as TPA and IBMX. The cultures are grown on cell culture inserts at the air-liquid interface, allowing for simulated topical application of agents to be tested. Introduction of agents into the medium simulates systemic application.
On delivery, the melanoderms (MatTek MEL-300-B) were placed onto metal ring supports in a 6 well plate containing 5 ml of pre-warmed maintenance media (of EPI-100-MM-PRF), using aseptic technique as per MatTek's protocol. Incubation was carried out overnight at 37° C. and 4% CO2 to allow the melanoderms to recover and equilibrate fully. Once placed under these conditions the MEL-300 tissue, undergo melanogenesis and differentiation.
Treatment was initiated on the following morning. Agents to be tested were dissolved in appropriate solvents and added to warmed media at final concentrations pre-assessed for melanocyte toxicity. Each time the media was changed, the spent media was aspirated from the melanoderms and reserved for testing for toxicity (Lactate Dehydrogenase (Promega)) and Interleukin-1 release (R&D systems) and replaced with a fresh dose of media plus test agents whether within the media of the melanoderm. Melanoderms were returned to the incubator.
On observation of differences in darkening, microscopic and macroscopic darkening were recorded photographically. Harvesting the tissue of the melanoderm involved cutting away the tissue from its plastic support and was followed by quantification of melanin present post-treatment versus untreated.
Melanoderm samples were cut from the plastic holders and the wet weight of tissue measured. 200 μl 1M NaOH/8M urea was added to the melanoderm sample the tissue homogenised in a microfuge tube. Samples were whirlimixed at RT for 30 minutes on and off to release the soluble melanin. Samples were centrifuged at 13,000 rpm for 10 minutes and supernatant containing soluble melanin was removed to a fresh tube.
Protein was extracted from the supernatant by addition of 200 μl chloroform and then by mixing vigorously for 1 minute. Phases were separated by centrifugation at 13,000 rpm for 10 minutes. 150 μl of supernatant was added to a microtitre plate (in duplicate) and the OD 340 nm ascertained.
1M NaOH was added to the remaining pellet which contains the insoluble melanin and the sample vortexed for one minute. The sample was then incubated in a water bath at 37° C. for 96 hrs with daily mixing to released the insoluble melanin. The sample was centrifuged for 10 minutes at 13,000 rpm with 200 μl of chloroform and 190 μl of the supernatant taken to a fresh tube. The supernatant was centrifuged again and 150 μl removed to a microtitre plate for analysis of absorption at 340 nm.
Absolute melanin is calculated as the actual melanin quantity calculated from a previously determined light melanin standard curve: x=(y−0.003)/4.76423 (where x=concentration of melanin and y=optical density at 340 nm).

Row | Compound | Total Melanin [µg/g] | Ratio of light melanin (μg/g)/dark melanin (μg/g) | Dark Melanin [µg/g] | Light Melanin [µg/g] | Dark Melanin, change relative to control | Light Melanin, change relative to control
1 | N[C@@H](CS)C(=O)O [Cysteine] | 5.96 | 0.13 | 5.27 | 0.69 | (−13.3%) | (−18.8%)
2 | NC(=O)c1cccnc1 [Niacinamide] | 8.10 | 0.13 | 7.16 | 0.94 | (+17.8%) | (+10.6%)
3 | Vitamin A | 7.81 | – | 6.71 | – | – | –
4 | Vitamin B12 | 7.93 | 0.19 | 6.66 | 1.27 | (+9.5%) | (+49.4%)
